Measurements as given in patent US11597737B2, “Small molecule inhibitors selective for polo-like kinase proteins” (UNIVERSITY OF SOUTH CAROLINA, priority 2016, dated 2023).
Read-outs that look alike come from different tables or passages of the source.

What was measured:
[1] = Cytotoxicity, cell viability and apoptosis data, FIG. 12; assay type: cell-based; conditions: average from various assays
Excerpt: For instance, FIG. 12 presents cytotoxicity, cell viability, and apoptosis data for cells treated with inhibitor SCCP ID No: 6037. […] The data of FIG. 13 relates to SCCP ID No: 5914 and the data of FIG. 14 relates to SCCP ID No: 5915.

[2] = test system: PC3 cells; assay: Cell cycle analysis and BrdU pulse labeling in PC3 cells, FIG. 9-11; assay type: cell-based; conditions: for cells replicating their DNA (BrdU labeling): 5 μM
Protocol: (§1) Analysis of Cell Cycle Progression by FACS
(§2) Serum-Starved Synchronization
(§3) Cells were synchronized in G1 by serum starvation. Briefly, exponentially growing cells were plated overnight. Media (DMEM, 10% FBS, 1% Pen. Strep.) was then removed and replaced with media containing no FBS. Cells were starved for 72 hours then treated for 24 hours with inhibitor. Following treatment, cells were harvested and processed for endpoint experimental analysis.
(§4) Ethanol fixative was removed by centrifugation and the cells were washed with 1 mL ice-cold PBS/1% BSA. Cells were denatured by resuspending in 0.2 mg/mL pepsin in 2N HCl and incubated in 37° C. water bath for 15 minutes. Hydrolysis was then terminated by adding 1 M Invitrogen™ Novex® Tris-Glycine. Cells were then washed with PBS/1% BSA then the primary anti-BrdU antibody (1:100 dilution in TBFP; 0.5% Tween-20, 1% BSA, 1% FBS, PBS) was added and cells were incubated for 25 minutes in the dark, at room temperature. […] Cells were washed once more with PBS/1% BSA and re-suspended in DAPI for 30 minutes before being analyzed by flow cytometry.
The PLK1 PBD-inhibitors were analyzed further by cell cycle analysis in PC3 cells (FIG. 9). […] To quantify the percentage of cells actively proliferating (synthesizing their DNA) or arrested Bromodeoxyuridine (BrdU) pulse labeling was carried out and analyzed by flow cytometry.

[3] = biological target: T1, PLK1 PBD (367-603) (Homo sapiens, UniProt P53350); assay: Fluorescence polarization assay, PLK1 PBD; assay type: binding; conditions: for PLK1 versus PLK3 specificity (in words): PBD binding; for IC50: PLK1 PBD binding, fluorescence polarization, read-out: PLK1 IC50
T1 construct: PLK1 PBD (367-603); purchased BPS Biosciences Inc. (San Diego, Calif.)
Protocol: Fluorescence Polarization Assay
Materials were dissolved in DMSO (10 mM) and diluted from 10 nM to 600 μM (maximum of 6% DMSO tolerance in the assay). […] Incubation was carried out at room temperature for 45 minutes. Fluorescence was measured using a DTX 880 plate reader and Multimode Analysis software (Beckman Coulter, Brea, Calif.). […] Each data point was performed in triplicate for every experiment, and experiments were performed at least three times. An IC50 value for each compound was calculated from linear regression analysis of the plots.

[4] = test system: PC3 cells; assay: Cell cycle analysis after release (DAPI/BrdU FACS), FIG. 3; assay type: cell-based
Protocol: PLK specificity can be useful in therapeutic applications, as well as in research-oriented application.
as §1, §2, §3, §4

[5] = test system: PTEN deficient prostate cancer (PC3) cells; assay: Cell viability assay (MTT), PC3; assay type: cell-based; conditions: read-out: PCC-3
Protocol: PC3 prostate cancer cells were maintained in DMEM (Invitrogen™, Carlsebad, Calif.) supplemented with 10% FBS or Corning® Nu-Serum™ (BD™ Biosciences, Franklin Lakes, N.J.) and 1% penicillin/streptomycin (Invitrogen™) in a humidified incubator and 5% C02 at 37° C.
(§5) Exponentially growing cells were plated in 96-well dishes. Dose response curves were used to treat cells for 72 hours with inhibitors. Following the three-day treatment, cell viability was measured using the MTT (3-(4,5-dimethylthiazol-2-yl)-2,5-diphenyltetrazolium bromide) colorimetric assay. Cells were incubated for 3 hours with MTT allowing viable cells to metabolize the tetrazolium dye to a purple colored solution.

[6] = test system: HeLa cervical cancer cells; assay: Cell viability assay (MTT), HeLa; assay type: cell-based; conditions: read-out: HeLa
Protocol: HeLa cervical cancer cells were obtained from ATCC (Manassas, Va.). […] Cells were maintained in DMEM (Invitrogen™, Carlsebad, Calif.) supplemented with 10% FBS or Corning© Nu-Serum™ (BD™ Biosciences, Franklin Lakes, N.J.) and 1% penicillin/streptomycin (Invitrogen™) in a humidified incubator and 5% CO2 at 37° C.
as §5

[7] = Cell cycle analysis and caspase apoptosis assay; assay type: cell-based
Excerpt: Disclosed small molecule inhibitors can also encourage apoptosis.

[8] = test system: HCT-116 (p53−/−) colon cancer cells; assay: Cell viability assay (MTT), HCT116 p53-/-; assay type: cell-based; conditions: 72 hours
Protocol: HCT-116 (p53+/+ and −/−) colon cancer cells were maintained DMEM (Invitrogen™, Carlsebad, Calif.) supplemented with 10% FBS or Nu-serum (BD™ Biosciences, Franklin Lakes, N.J.) and 1% penicillin/streptomycin (Invitrogen™) in a humidified incubator and 5% C02 at 37° C.
(§6) Exponentially growing cells were plated in 96-well dishes. Dose response curves were used to treat cells for 72 hours with inhibitors. Following the three-day treatment, cell viability was measured using the MTT (3-(4,5-dimethylthiazol-2-yl)-2,5-diphenyltetrazolium bromide) colorimetric assay. Cells were incubated for 3 hours with MTT allowing viable cells to metabolize the tetrazolium dye to a purple colored solution. Absorbance measurements (595 nm) were quantified using a DTX 880 plate reader and IC50 values were generated for FLIPs.

[9] = biological target: T2, full length PLK1 (Homo sapiens, UniProt P53350); assay: PLK1 kinase inhibition assay (CycLex ELISA); assay type: biochemical; conditions: 7.5 μM ATP, read-out: PLK1 Kinase Inhibitory Act. IC50
T2 construct: This ELISA assay measures the catalytic activity of full length PLK1 for a defined substrate
Excerpt: PLK1 Kinase Inhibition Assay
The CycLex® Polo-like Kinase 1 Assay/Inhibitor Screening Kit was used to measure catalytic inhibition (MBL Life Science, Nagano, Japan). This ELISA assay measures the catalytic activity of full length PLK1 for a defined substrate, which is detected by an anti-phospho-threonine antibody (PPT-07) and peroxidase coupled secondary antibody. […] Peroxidase catalyzes the conversion of the colorless solution to yellow, which was quantified using a DTX 880 plate reader. Absorbance measurements (450 nm) were plotted to calculate activity in each sample, and % inhibition was calculated in the wells relative to activity in the absence of inhibitor.

[10] = test system: KRAS mutant lung cancer (A-549) cells; assay: Cell viability assay (MTT), A-549; assay type: cell-based; conditions: 72 hours
Protocol: A-549 lung cancer cells were maintained in Hams F-12 1× with glutamine (Corning® Cellgro, Manassas, Va.), and supplemented with 10% FBS or Corning® Nu-Serum™ (BD™ Biosciences, Franklin Lakes, N.J.) and 1% penicillin/streptomycin (Invitrogen™) in a humidified incubator and 5% C02 at 37° C.
as §6

[11] = test system: HCT-116 (p53+/+) colon cancer cells; assay: Cell viability assay (MTT), HCT116 p53+/+; assay type: cell-based; conditions: 72 hours
Protocol: as §5

[12] = FIG. 3 4th panel, concentration not given

T1 sequence (P53350 367-603): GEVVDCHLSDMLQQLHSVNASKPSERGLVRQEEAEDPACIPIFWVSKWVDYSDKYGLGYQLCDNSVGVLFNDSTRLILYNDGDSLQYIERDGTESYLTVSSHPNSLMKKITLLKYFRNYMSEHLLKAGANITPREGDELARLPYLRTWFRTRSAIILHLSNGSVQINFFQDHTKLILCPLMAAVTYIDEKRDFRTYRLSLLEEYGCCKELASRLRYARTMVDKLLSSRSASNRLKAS
T2 sequence (P53350 whole entry): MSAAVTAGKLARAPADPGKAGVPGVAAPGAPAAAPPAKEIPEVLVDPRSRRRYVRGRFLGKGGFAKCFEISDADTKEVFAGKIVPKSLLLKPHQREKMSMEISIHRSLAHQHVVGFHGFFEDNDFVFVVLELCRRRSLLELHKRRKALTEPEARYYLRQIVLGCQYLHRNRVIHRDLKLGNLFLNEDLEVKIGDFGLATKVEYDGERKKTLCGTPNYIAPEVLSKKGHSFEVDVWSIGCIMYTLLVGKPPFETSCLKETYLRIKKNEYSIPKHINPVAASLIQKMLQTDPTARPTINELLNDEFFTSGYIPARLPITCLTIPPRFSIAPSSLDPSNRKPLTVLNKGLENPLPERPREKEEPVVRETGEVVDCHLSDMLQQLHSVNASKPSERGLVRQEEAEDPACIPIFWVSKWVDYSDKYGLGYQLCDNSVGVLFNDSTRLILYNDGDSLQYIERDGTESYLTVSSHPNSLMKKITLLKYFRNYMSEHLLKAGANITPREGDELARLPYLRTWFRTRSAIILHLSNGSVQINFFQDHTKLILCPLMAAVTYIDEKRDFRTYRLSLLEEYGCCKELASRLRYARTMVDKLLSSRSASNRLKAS

With `CCCCCCCCCCCCc1ccc(C(=O)Nc2ccccc2C(=O)O)cc1` [SCCP ID No. 6037] as the molecule, how does the cell viability [1] read?
Its cell viability is 15.6 ± 3.4 µM.

What about the cytotoxicity [1] of the same molecule?
The cytotoxicity was 14.8 ± 3.6 µM.

What about the “cells replicating their DNA (BrdU labeling)” value [2] of the same molecule?
The value was 75.7%.

What about the “BrdU+” value ([2]; 15 μM) of the same molecule?
Its value is 1.9%.

What about the “cell cycle phenotype (in words)” value ([2]; 15 μM) of the same molecule?
Its value is “G1 arrest”.

What about the “cell cycle phenotype (in words)” value ([2]; both the lower (5 μM) and higher (15 μM) dose, FIG. 11) of the same molecule?
Its value is “G1 accumulation”.

What about the “PLK1 versus PLK3 specificity (in words)” value [3] of the same molecule?
Its value is “selectivity for PLK3”.

What about the IC50 [3] of the same molecule?
The IC50 was 5.97 ± 0.38 µM.

And the “G2/M by DAPI” value ([4]; 5 μM)?
Its value is 7%.

What about the “BrdU+” value ([4]; 5 μM, FIG. 3 2nd panel) of the same molecule?
Its value is 27%.

What about the “G1 by DAPI” value ([4]; 5 μM, FIG. 3 2nd panel) of the same molecule?
The value was 77%.

And the “S by DAPI” value ([4]; 5 μM, FIG. 3 2nd panel)?
Its value is 15%.

What about the “G2/M by DAPI” value ([4]; 20 μM, FIG. 3 3rd panel) of the same molecule?
Its value is 28%.

What about the IC50 ([5]; Homo sapiens, PC-3, 72 h) of the same molecule?
The IC50 was 9.4 ± 0.8 µM.

And the IC50 ([6]; Homo sapiens, HeLa, 72 h)?
Its IC50 is 14 ± 3.5 µM.

What about the “levels of apoptosis (in words)” value [7] of the same molecule?
The value was “high levels of apoptosis”.

Which IC50 [8] does the source give for `CCCCCCCCc1ccc(C(=O)Nc2ccc(C)cc2C(=O)O)cc1` [SCCP ID No. 5915] here?
Its IC50 is 10 ± 1 µM.

What about the “cells replicating their DNA (BrdU labeling)” value [2] of the same molecule?
The value was 28.3%.

And the “BrdU+” value ([2]; 15 μM)?
The value was 3.6%.

And the “cell cycle phenotype (in words)” value ([2]; 15 μM)?
Its value is “G1 delay or arrest”.

And the “PLK1 versus PLK3 specificity (in words)” value [3]?
The value was “high selectivity for PLK1”.

And the IC50 [3]?
Its IC50 is 2.16 ± 0.01 µM.

What about the IC50 [9] of the same molecule?
The IC50 was 24.3 µM.

And the “G2/M by DAPI” value [4, 12]?
Its value is 42%.

What about the “cells BrdU+” value [4, 12] of the same molecule?
Its value is 13%.

What about the IC50 ([5]; MTT, 72 hours) of the same molecule?
Its IC50 is 16.3 ± 2.1 µM.

And the IC50 [10]?
Its IC50 is 5.1 ± 1.5 µM.

And the IC50 [11]?
The IC50 was 17.4 ± 5.6 µM.

And the IC50 ([6]; MTT, 72 hours)?
Its IC50 is 15.5 ± 1.7 µM.

And the “levels of apoptosis (in words)” value [7]?
The value was “high levels of apoptosis”.
